In ChEMBL document CHEMBL2424650, “Optimization of anti-proliferative activity using a screening approach with a series of bis-heterocyclic G-quadruplex ligands” (Bioorg Med Chem Lett, 2013):

What was measured:
[1] = Binding affinity to 21-mer Hsp90A promoter quadruplex (unknown origin) assessed as change in melting temperature at 1 uM by FRET assay
A549 = experiment: Antiproliferative activity against human A549 cells after 96 hrs by SRB assay; format: functional, cell-based; conditions: A549, 96 h
[2] = Antiproliferative activity against human […] cells after 96 hrs by SRB assay; format: cell-based; conditions: WI-38, 96 h
[3] = Binding affinity to c-kit2 G4-quadruplex DNA (unknown origin) assessed as change in melting temperature at 1 uM by FRET assay
[4] = Binding affinity to duplex DNA (unknown origin) assessed as change in melting temperature at 1 uM by FRET assay
786-0 = experiment: Antiproliferative activity against human 786-0 cells after 96 hrs by SRB assay; format: functional, cell-based; conditions: 786-0, 96 h
Homo sapiens [5] = organism: Homo sapiens; experiment: Binding affinity to human F21T G4-telomeric quadruplex assessed as change in melting temperature at 1 uM by FRET assay
[6] = Antiproliferative activity against human RCC4 cells after 96 hrs by SRB assay; format: functional, cell-based; conditions: RCC4, 96 h
MCF7 = experiment: Antiproliferative activity against human MCF7 cells after 96 hrs by SRB assay; format: functional, cell-based; conditions: MCF7, 96 h
[7] = Binding affinity to duplex DNA (unknown origin) assessed as change in melting temperature at 5 uM by FRET assay
Homo sapiens [8] = organism: Homo sapiens; experiment: Binding affinity to human F21T G4-telomeric quadruplex assessed as change in melting temperature at 5 uM by FRET assay
[9] = Binding affinity to c-kit2 G4-quadruplex DNA (unknown origin) assessed as change in melting temperature at 5 uM by FRET assay
[10] = Binding affinity to 21-mer Hsp90A promoter quadruplex (unknown origin) assessed as change in melting temperature at 5 uM by FRET assay

| Structure (SMILES) | ΔTm [1] | IC50 (A549) | ΔTm [3] | ΔTm [4] | IC50 (786-0) | ΔTm (Homo sapiens [5]) | IC50 (MCF7) | ΔTm [7] | ΔTm (Homo sapiens [8]) | ΔTm [9] | ΔTm [10] | IC50 [2] | IC50 [6] |
| --- | --- | --- | --- | --- | --- | --- | --- | --- | --- | --- | --- | --- | --- |
| c1cc(-c2cnc(-c3cccc(CN4CCCCC4)c3)o2)cc(-c2cnc(-c3cccc(CN4CCCCC4)c3)o2)c1 | 5 °C | 1200 nM | < 2 °C | 2 °C | 2300 nM | < 2 °C | 1400 nM |  |  |  |  | 4400 nM | 1900 nM |
| CN1CCN(CCCNc2cccc(-c3ncc(-c4cccc(-c5cnc(-c6cccc(NCCCN7CCN(C)CC7)c6)o5)c4)o3)c2)CC1 | < 2 °C | 1200 nM | < 2 °C | 0 °C | 900 nM | < 2 °C | 1000 nM | 0 °C | 20.1 °C | 18.3 °C | 25.6 °C | 1100 nM | 1200 nM |
| c1cc(-c2cnc(-c3cccc(OCCN4CCCC4)c3)o2)cc(-c2cnc(-c3cccc(OCCN4CCCC4)c3)o2)c1 | 3.4 °C | 1000 nM | < 2 °C | 0 °C | 700 nM | < 2 °C | 1200 nM | 5.3 °C | 25.9 °C | 20.3 °C | 27.7 °C | 1000 nM | 1300 nM |
| CN1CCN(CCCNc2cccc(-c3ncc(-c4ccc5ccc(-c6cnc(-c7cccc(NCCCN8CCN(C)CC8)c7)o6)cc5c4)o3)c2)CC1 | 2.5 °C | 1600 nM | < 2 °C | 0 °C | 1200 nM | < 2 °C | 1900 nM | 0 °C | < 10 °C | < 10 °C | < 10 °C | 3100 nM | 2100 nM |

More lines, main results first:

| ΔTm [1] | IC50 (A549) | ΔTm [3] | ΔTm [4] | IC50 (786-0) | ΔTm (Homo sapiens [5]) | IC50 (MCF7) | ΔTm [7] | ΔTm (Homo sapiens [8]) | ΔTm [9] | ΔTm [10] | Structure (SMILES) | IC50 [2] | IC50 [6] |
| --- | --- | --- | --- | --- | --- | --- | --- | --- | --- | --- | --- | --- | --- |
| < 2 °C | 600 nM | < 2 °C | 0 °C | 1100 nM | < 2 °C | 2100 nM | 6.8 °C | 24.7 °C | 17 °C |  | c1cc(-c2cnc(-c3cccc(NCCN4CCCC4)c3)o2)cc(-c2cnc(-c3cccc(NCCN4CCCC4)c3)o2)c1 | 1000 nM | 1100 nM |
| < 2 °C | > 25000 nM | < 2 °C | 0 °C | > 25000 nM | < 2 °C | > 25000 nM | 0 °C | < 10 °C | < 10 °C | < 10 °C | CN1CCN(CCCNc2ccc(-n3cc(-c4ccc5ccc(-c6cn(-c7ccc(NCCCN8CCN(C)CC8)cc7)nn6)cc5c4)nn3)cc2)CC1 | > 25000 nM | > 25000 nM |
| < 2 °C | 2500 nM | < 2 °C | 0 °C | 1300 nM | < 2 °C | 3100 nM | 0 °C | 13.3 °C | 13.6 °C | 19.5 °C | CCN(CC)CCNc1cccc(-c2ncc(-c3cccc(-c4cnc(-c5cccc(NCCN(CC)CC)c5)o4)c3)o2)c1 | 2800 nM | 1100 nM |
| 5.7 °C | > 25000 nM | 2.4 °C | 0 °C | 8700 nM | 2.9 °C | > 25000 nM | 0 °C | < 10 °C | < 10 °C | < 10 °C | CN1CCN(CCCNc2cccc(-n3cc(-c4ccc5ccc(-c6cn(-c7cccc(NCCCN8CCN(C)CC8)c7)nn6)cc5c4)nn3)c2)CC1 | 15300 nM | 8400 nM |
